# Source: patent US12157730B2, “Heteroaryl derivative, method for producing same, and pharmaceutical composition comprising same as effective component” (VORONOI INC., priority 2019, dated 2024)
# Target: T1, Ba/F3 cell EGFR Exon20 ins NPH (Homo sapiens, UniProt P00533, INS773NPH)
# T1 construct: expressed in transfected cells; host or cells: Ba/F3
# Experiment: Ba/F3 cell proliferation suppression, EGFR Exon20 ins NPH
# Format: cell-based
# Conditions: GI50 class; Ba/F3 cell line with NPH inserted at Exon20 of EGFR; 72 hours
# Procedure, shortened: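 Growth suppression determined as GI50 following 72 h exposure across 12 concentrations up to 50 um, with viability by luminescent ATP assay (CellTiter-Glo).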
row,Structure (SMILES),Ba/F3 (NPH) Activity
1,"C=CC(=O)Nc1cc(Nc2cc(N3OCC[C@@H]3c3cccc(F)c3F)ncn2)c(OC)cc1N1CCC(N2CCN(C(C)=O)CC2)CC1 [compound 339, N-(2-(4-(4-acetylpiperazine-1-yl)piperidine-1-yl)-5-((6-((R)-3-(2,3-difluorophenyl)isoxazolidine-2-yl)pyrimidine-4-yl)amino)-4-methoxyphenyl) acrylamide]",A (GI50 < 50 nM)
2,"C=CC(=O)Nc1cc(Nc2cc(N3OCC[C@@H]3c3ccc(F)c(Cl)c3)ncn2)c(OC)cc1N1C[C@@H]2CCN(C)[C@@H]2C1 [compound 316, N-(5-((6-((R)-3-(3-chloro-4-fluorophenyl)isoxazolidine-2-yl)pyrimidine-4-yl)amino)-4-methoxy-2-((3aS,6aS)-1-methylhexahydropyrrolo [3,4-b]pyrrole-5(1H)-yl)phenyl)acrylamide]",A (GI50 < 50 nM)
3,"C=CC(=O)Nc1cc(Nc2cc(N3OCC[C@@H]3c3cc(F)cc(Cl)c3)ncn2)c(OC)cc1N1CCC(N2C[C@H]3C[C@@H]2CO3)CC1 [compound 590, N-(2-(4-((1R,4R)-2-oxa-5-azabicyclo[2.2.1]heptane-5-yl)piperidine-1-yl)-5-((6-((R)-3-(3-chloro-5-fluorophenyl)isoxazolidine-2-yl)pyrimidine-4-yl)amino)-4-methoxyphenyl) acrylamide]",A (GI50 < 50 nM)
4,"C=CC(=O)Nc1cc(Nc2cc(N3OCC[C@@H]3c3cccc(Cl)c3Cl)ncn2)c(OC)cc1N1C[C@H]2C[C@@H]1CN2CC [compound 525, N-(5-((6-((R)-3-(2,3-dichlorophenyl)isoxazolidine-2-yl)pyrimidine-4-yl)amino)-2-((1R,4R)-5-ethyl-2,5-diazabicyclo[2.2.1]heptane-2-yl)-4-methoxyphenyl) acrylamide]",A (GI50 < 50 nM)
5,"C=CC(=O)Nc1cc(Nc2cc(N3OCC[C@@H]3c3cccc(C#N)c3)ncn2)c(OC)cc1N1CCC(N2CCN(CCC)CC2)CC1 [compound 432, N-(5-((6-((R)-3-(3-cyanophenyl)isoxazolidine-2-yl)pyrimidine-4-yl)amino)-4-methoxy-2-(4-(4-propylpiperazine-1-yl)piperidine-1-yl)phenyl) acrylamide]",A (GI50 < 50 nM)
6,"C=CC(=O)Nc1cc(Nc2cc(N3OCC[C@@H]3c3ccccc3)ncn2)c(OC)cc1N1CCC(N2CCN(C(C)=O)CC2)CC1 [Example 284, N-(2-(4-(4-acetylpiperazine-1-yl)piperidine-1-yl)-4-methoxy-5-((6-((R)-3-phenylisoxazolidine-2-yl)pyrimidine-4-yl)amino)phenyl) acrylamide]",A (GI50 < 50 nM)
7,"C=CC(=O)Nc1cc(Nc2cc(N3OCC[C@@H]3c3ccc(Cl)cc3)ncn2)c(OC)cc1N1CCC(N2CC[C@@H](N(C)C)C2)CC1 [compound 783, N-(5-((6-((R)-3-(4-chlorophenyl)isoxazolidine-2-yl)pyrimidine-4-yl)amino)-2-(4-((R)-3-(dimethylamino)pyrolidine-1-yl)piperidine-1-yl)-4-methoxyphenyl) acrylamide]",A (GI50 < 50 nM)
8,"C=CC(=O)Nc1cc(Nc2cc(N3OCC[C@@H]3c3cc(F)cc(F)c3)ncn2)c(OC)cc1N1CCC(N2C[C@@H]3C[C@H]2CN3C)CC1 [Example 260, N-(5-((6-((R)-3-(3,5-difluorophenyl)isoxazolidine-2-yl)pyrimidine-4-yl)amino)-4-methoxy-2-(4-((1S,4S)-5-methyl-2,5-diazabicyclo[2.2.1]heptane-2-yl)piperidine-1-yl)phenyl)acrylamide]",A (GI50 < 50 nM)
9,"C=CC(=O)Nc1cc(Nc2cc(N3OCC[C@@H]3c3ccc(Cl)cc3F)ncn2)c(OC)cc1N1CC[C@H](N2CCOCC2)C1 [compound 407, N-(5-((6-((R)-3-(4-chloro-2-fluorophenyl)isoxazolidine-2-yl)pyrimidine-4-yl)amino)-4-methoxy-2-((S)-3-morpholinopyrolidine-1-yl)phenyl)acrylamide]",B (50 nM ≤ GI50 < 500 nM)

# Now from value to molecule:
row,Ba/F3 (NPH) Activity,Structure (SMILES)
1,A (GI50 < 50 nM),"C=CC(=O)Nc1cc(Nc2cc(N3OCC[C@@H]3c3ccc(F)cc3F)ncn2)c(OC)cc1N1CCN(CC2CC2)CC1 [compound 380, N-(2-(4-(cyclopropylmethyl)piperazine-1-yl)-5-((6-((R)-3-(2,4-difluorophenyl)isoxazolidine-2-yl)pyrimidine-4-yl)amino)-4-methoxyphenyl) acrylamide]"
2,A (GI50 < 50 nM),"C=CC(=O)Nc1cc(Nc2cc(N3OCC[C@@H]3c3cccc(F)c3F)ncn2)c(OC)cc1N1CC[C@@H](N(C)C)C1 [compound 927, N-(5-((6-((R)-3-(2,3-difluorophenyl)isoxazolidine-2-yl)pyrimidine-4-yl)amino)-2-((R)-3-(dimethylamino)pyrolidine-1-yl)-4-methoxyphenyl) acrylamide]"
3,C (500 nM ≤ GI50 < 5000 nM),"C=CC(=O)Nc1cc(Nc2cc(N3OCC[C@@H]3Cc3cccc(N(C)C)c3)ncn2)c(OC)cc1N1CCN(C2CC2)CC1 [compound 1043, N-(2-(4-cyclopropylpiperazine-1-yl)-5-((6-((S)-3-(3-(dimethylamino)benyl)isoxazolidine-2-yl)prymidine-4-yl)amino)-4-methoxyphenyl) acrylamide]"
4,A (GI50 < 50 nM),"C=CC(=O)Nc1cc(Nc2cc(N3OCC[C@@H]3c3ccc(F)c(Cl)c3)ncn2)c(OC)cc1N1CCC(N2C[C@H]3C[C@@H]2CO3)CC1 [Example 257, N-(2-(4-((1R,4R)-2-oxa-5-azabicyclo[2.2.1]heptane-5-yl)piperidine-1-yl)-5-((6-((R)-3-(3-chloro-4-fluorophenyl)isoxazolidine-2-yl)pyrimidine-4-yl)amino)-4-methoxyphenyl) acrylamide]"
5,A (GI50 < 50 nM),"C=CC(=O)Nc1cc(Nc2cc(N3OCC[C@@H]3c3cccc(C#N)c3)ncn2)c(OC)cc1N(C)CCN(C)C [compound 392, N-(5-((6-((R)-3-(3-cyanophenyl)isoxazolidine-2-yl)pyrimidine-4-yl)amino)-2-((2-(dimethylamino)ethyl)(methyl)amino)-4-methoxyphenyl) acrylamide]"
6,A (GI50 < 50 nM),"C=CC(=O)Nc1cc(Nc2cc(N3OCC[C@@H]3c3cccc(F)c3F)ncn2)c(OC)cc1N1CCC(N2CCN(CCC)CC2)CC1 [compound 342, N-(5-((6-((R)-3-(2,3-difluorophenyl)isoxazolidine-2-yl)pyrimidine-4-yl)amino)-4-methoxy-2-(4-(4-propylpiperazine-1-yl)piperidine-1-yl)phenyl)acrylamide]"
7,A (GI50 < 50 nM),"C=CC(=O)Nc1cc(Nc2cc(N3OCC[C@@H]3c3cc(F)ccc3F)ncn2)c(OC)cc1N1CCC(N2CCO[C@@H](C)C2)CC1 [compound 821, N-(5-((6-((R)-3-(2,5-difluorophenyl)isoxazolidine-2-yl)pyrimidine-4-yl)amino)-4-methoxy-2-(4-((S)-2-methylmorpholino)piperidine-1-yl)phenyl) acrylamide]"
8,A (GI50 < 50 nM),"C=CC(=O)Nc1cc(Nc2cc(N3OCC[C@@H]3c3ccc(F)c(Cl)c3)ncn2)c(OC)cc1N1C[C@H]2C[C@@H]1CO2 [compound 903, N-(2-((1R,4R)-2-oxa-5-azabicyclo [2.2.1]heptane-5-yl)-5-((6-((R)-3-(3-chloro-4-fluorophenyl)isoxazolidine-2-yl)pyrimidine-4-yl)amino)-4-methoxyphenyl) acrylamide]"
